IC50 data for 21 molecules are collected here from ChEMBL document CHEMBL5360622, “Leucettinibs, a Class of DYRK/CLK Kinase Inhibitors Inspired by the Marine Sponge Natural Product Leucettamine B” (J Med Chem, 2023).

Assay [1] has as its target T1, Dual specificity tyrosine-phosphorylation-regulated kinase 3 (Homo sapiens, UniProt O43781).
T1 sequence (O43781 whole entry): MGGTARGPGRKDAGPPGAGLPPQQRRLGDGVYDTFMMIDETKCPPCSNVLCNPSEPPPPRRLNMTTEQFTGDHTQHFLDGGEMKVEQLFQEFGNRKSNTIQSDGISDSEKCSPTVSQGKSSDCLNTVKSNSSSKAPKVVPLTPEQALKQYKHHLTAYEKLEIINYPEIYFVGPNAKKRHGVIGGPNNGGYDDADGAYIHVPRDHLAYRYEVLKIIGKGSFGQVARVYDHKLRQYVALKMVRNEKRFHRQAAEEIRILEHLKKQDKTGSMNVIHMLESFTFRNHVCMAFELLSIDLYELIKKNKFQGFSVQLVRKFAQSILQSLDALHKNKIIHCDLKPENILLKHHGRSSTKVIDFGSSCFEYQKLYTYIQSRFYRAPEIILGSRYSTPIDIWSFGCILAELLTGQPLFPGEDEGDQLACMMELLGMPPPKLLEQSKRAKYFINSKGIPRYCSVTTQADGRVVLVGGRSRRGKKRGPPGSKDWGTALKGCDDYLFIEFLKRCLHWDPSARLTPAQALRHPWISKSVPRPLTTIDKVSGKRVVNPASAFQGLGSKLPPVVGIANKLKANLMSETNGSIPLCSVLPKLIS

Assay [2] has as its target Dual specificity protein kinase CLK3 (Homo sapiens, UniProt P49761). The format is cell-based, Sf9.
Assay [3] has as its target Dual specificity protein kinase CLK2 (Homo sapiens, UniProt P49760).
Assay [4] deals with Glycogen synthase kinase-3 beta (Homo sapiens, UniProt P49841). In kind it is cell-based, Sf9.
Chain of Glycogen synthase kinase-3 beta (P49841 whole entry): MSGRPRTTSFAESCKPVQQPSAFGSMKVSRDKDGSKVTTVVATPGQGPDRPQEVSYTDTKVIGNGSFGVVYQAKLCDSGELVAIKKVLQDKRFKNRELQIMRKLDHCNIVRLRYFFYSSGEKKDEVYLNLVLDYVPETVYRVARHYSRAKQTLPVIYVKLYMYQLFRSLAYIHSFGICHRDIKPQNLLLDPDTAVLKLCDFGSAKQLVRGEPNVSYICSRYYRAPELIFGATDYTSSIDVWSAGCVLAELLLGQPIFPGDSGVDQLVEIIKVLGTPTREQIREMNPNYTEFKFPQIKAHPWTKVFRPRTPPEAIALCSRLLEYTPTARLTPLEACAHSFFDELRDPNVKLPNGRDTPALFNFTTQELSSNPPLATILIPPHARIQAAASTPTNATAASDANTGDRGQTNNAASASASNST
In assay [5] the target is Cyclin-dependent kinase 5/CDK5 activator 1 (Homo sapiens, UniProt Q00535). In kind it is cell-based, Sf9.
Chain of Cyclin-dependent kinase 5/CDK5 activator 1 (Q00535 whole entry): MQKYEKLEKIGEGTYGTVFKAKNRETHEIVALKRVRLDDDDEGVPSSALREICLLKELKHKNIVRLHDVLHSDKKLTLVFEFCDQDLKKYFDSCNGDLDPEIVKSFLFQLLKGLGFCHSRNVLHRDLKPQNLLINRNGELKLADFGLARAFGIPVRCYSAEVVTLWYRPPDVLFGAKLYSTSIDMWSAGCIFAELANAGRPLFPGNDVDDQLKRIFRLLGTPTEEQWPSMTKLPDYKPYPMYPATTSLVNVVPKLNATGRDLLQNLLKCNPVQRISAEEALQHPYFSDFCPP
Chain of Cyclin-dependent kinase 5/CDK5 activator 1 (Q15078 whole entry, further chain): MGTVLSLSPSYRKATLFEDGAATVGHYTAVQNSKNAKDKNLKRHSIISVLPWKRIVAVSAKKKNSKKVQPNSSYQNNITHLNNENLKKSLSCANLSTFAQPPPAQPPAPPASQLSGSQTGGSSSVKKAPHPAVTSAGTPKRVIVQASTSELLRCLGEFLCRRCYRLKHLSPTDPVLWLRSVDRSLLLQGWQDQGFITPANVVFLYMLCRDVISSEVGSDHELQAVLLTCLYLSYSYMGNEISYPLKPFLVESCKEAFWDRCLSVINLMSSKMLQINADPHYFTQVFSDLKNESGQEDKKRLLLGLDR
For assay [6], the target named is T2, Dual specificity tyrosine-phosphorylation-regulated kinase 4 (Homo sapiens, UniProt Q9NR20).
T2 sequence (Q9NR20 whole entry): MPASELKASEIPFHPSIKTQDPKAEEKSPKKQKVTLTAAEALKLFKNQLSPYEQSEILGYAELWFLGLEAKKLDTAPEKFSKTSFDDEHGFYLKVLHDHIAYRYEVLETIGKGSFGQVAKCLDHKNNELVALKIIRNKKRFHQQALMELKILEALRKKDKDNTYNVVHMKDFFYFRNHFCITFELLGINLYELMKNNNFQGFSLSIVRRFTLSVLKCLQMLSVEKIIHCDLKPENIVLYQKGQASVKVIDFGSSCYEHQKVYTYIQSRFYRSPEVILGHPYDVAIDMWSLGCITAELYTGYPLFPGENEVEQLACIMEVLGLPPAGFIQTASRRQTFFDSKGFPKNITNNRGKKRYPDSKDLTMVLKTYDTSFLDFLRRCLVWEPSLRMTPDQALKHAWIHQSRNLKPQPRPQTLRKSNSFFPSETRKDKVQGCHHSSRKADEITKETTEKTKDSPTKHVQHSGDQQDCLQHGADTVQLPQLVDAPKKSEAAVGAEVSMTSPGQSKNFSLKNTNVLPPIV

Assay [7] concerns the target Casein kinase I isoform epsilon (Homo sapiens, UniProt P49674).
Assay [8] deals with T3, Dual specificity tyrosine-phosphorylation-regulated kinase 2 (Homo sapiens, UniProt Q92630).
T3 sequence (Q92630 whole entry): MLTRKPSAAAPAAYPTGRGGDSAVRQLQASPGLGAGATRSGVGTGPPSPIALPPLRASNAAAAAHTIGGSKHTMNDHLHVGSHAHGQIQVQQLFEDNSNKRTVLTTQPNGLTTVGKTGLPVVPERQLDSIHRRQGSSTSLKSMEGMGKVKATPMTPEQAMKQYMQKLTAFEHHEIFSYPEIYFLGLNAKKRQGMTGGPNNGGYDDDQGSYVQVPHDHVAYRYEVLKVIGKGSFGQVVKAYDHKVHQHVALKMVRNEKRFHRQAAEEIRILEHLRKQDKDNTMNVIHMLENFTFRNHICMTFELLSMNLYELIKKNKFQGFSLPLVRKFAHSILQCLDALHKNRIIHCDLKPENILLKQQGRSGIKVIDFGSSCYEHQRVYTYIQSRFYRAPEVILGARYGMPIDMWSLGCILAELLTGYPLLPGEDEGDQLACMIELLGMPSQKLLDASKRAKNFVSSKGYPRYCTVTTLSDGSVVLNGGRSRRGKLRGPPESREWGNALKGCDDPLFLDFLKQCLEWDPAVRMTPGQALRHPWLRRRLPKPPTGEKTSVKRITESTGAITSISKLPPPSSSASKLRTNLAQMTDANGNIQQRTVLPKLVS

Chain of Dual specificity protein kinase CLK2 (P49760 whole entry): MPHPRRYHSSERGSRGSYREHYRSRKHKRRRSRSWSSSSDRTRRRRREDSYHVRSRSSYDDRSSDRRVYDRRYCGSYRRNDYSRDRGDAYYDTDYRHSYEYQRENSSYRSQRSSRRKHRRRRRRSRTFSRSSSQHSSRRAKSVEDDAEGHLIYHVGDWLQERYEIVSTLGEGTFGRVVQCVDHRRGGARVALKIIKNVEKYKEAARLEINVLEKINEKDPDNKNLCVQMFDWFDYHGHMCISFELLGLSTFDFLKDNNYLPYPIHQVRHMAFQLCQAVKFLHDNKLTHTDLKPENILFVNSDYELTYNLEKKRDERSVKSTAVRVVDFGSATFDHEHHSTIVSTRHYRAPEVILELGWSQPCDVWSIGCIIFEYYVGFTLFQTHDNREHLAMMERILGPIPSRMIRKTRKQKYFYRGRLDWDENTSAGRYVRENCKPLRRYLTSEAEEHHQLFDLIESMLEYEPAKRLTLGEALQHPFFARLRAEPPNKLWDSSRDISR
Chain of Casein kinase I isoform epsilon (P49674 whole entry, canonical isoform): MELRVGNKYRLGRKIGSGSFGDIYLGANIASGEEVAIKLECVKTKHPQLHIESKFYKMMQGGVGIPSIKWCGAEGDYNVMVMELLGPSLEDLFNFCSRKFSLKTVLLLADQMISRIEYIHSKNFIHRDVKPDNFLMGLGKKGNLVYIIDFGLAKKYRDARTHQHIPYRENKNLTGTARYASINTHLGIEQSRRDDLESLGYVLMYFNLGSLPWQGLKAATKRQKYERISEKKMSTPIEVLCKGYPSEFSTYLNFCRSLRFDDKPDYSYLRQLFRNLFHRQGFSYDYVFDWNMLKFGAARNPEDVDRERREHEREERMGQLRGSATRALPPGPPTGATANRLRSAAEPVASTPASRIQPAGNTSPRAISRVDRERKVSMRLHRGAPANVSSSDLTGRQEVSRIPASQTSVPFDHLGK
Chain of Dual specificity protein kinase CLK3 (P49761 whole entry): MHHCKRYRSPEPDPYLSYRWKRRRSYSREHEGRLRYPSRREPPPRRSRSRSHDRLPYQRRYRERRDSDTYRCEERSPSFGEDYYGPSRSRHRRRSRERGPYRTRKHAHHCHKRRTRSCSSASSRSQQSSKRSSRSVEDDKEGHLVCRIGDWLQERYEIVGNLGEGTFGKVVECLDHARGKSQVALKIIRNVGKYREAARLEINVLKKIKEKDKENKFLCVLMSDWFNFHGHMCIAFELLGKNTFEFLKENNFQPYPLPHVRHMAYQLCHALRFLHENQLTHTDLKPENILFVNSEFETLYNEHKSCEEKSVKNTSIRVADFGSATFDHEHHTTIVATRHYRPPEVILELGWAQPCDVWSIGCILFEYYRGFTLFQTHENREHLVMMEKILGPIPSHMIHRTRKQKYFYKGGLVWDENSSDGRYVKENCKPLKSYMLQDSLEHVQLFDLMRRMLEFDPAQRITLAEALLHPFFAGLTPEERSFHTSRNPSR

By IC50 is commonly meant the midpoint of a concentration-inhibition curve. Low values mean greater potency in that assay, high ones weaker potency in that assay. Turning to `O=C1NC(NC2CC3CCC2C3)=N/C1=C\c1ccc2ncsc2c1` (racemic), the IC50 in assay [1] was 337 nM; in assay [2] it was 143 nM; in assay [3] it was 127 nM; in assay [4], 3260 nM; in assay [5], above 10000 nM; in assay [6], 260 nM. Moreover, the IC50 is above 10000 nM in assay [7] and 240 nM in assay [8].
For `CO[C@H]1CCCC[C@@H]1NC1=N/C(=C\c2ccc3ncsc3c2)C(=O)N1`, the IC50 in assay [1] was 1200 nM; in assay [2], 628 nM; in assay [3], 100 nM; in assay [4], 8750 nM; in assay [5], above 10000 nM; in assay [6] it was 439 nM. The same molecule gave an IC50 in assay [8] of 777 nM.
Consider `O=C1NC(NC2CC23CCCCC3)=N/C1=C\c1ccc2ncsc2c1` (centres undefined), for which the IC50 in assay [1] is 343 nM; in assay [2], 341 nM; in assay [4], 854 nM; in assay [5], above 10000 nM; in assay [6], 938 nM; in assay [7], above 10000 nM. For the same molecule, in assay [8], the IC50 amounted to 355 nM.
On to `CO[C@@H]1CCCC[C@H]1NC1=N/C(=C\c2ccc3ncsc3c2)C(=O)N1`, for which the IC50 was 1360 nM in assay [1]; 382 nM in assay [2]; 310 nM in assay [3]; above 10000 nM in assay [4]; above 10000 nM in assay [5]; 551 nM in assay [6]. Further, in assay [8], the IC50 amounted to 342 nM.
Turning to `O=C1NC(N[C@@H]2CCCC[C@@H](O)C2)=N/C1=C\c1ccc2ncsc2c1` (racemic), the IC50 in assay [1] is 706 nM; in assay [2], 309 nM; in assay [4] it was 4370 nM; in assay [5], above 10000 nM; in assay [6], 1250 nM; in assay [8], 258 nM.
For `CC(C)(C)OC(=O)N1CCC(CNC2=N/C(=C\c3ccc4ncsc4c3)C(=O)N2)CC1`, the IC50 is above 10000 nM in assay [1]; 8620 nM in assay [2]; 2200 nM in assay [3]; 5270 nM in assay [4]; above 10000 nM in assay [5]; above 10000 nM in assay [6]. The molecule also had an IC50 in assay [7] above 10000 nM.
With `Cc1ccc(CNC2=N/C(=C\c3ccc4ncsc4c3)C(=O)N2)c(C)c1`, the IC50 is 4200 nM in assay [1]; 518 nM in assay [2]; above 10000 nM in assay [4]; above 10000 nM in assay [5]; 9220 nM in assay [6]; above 10000 nM in assay [7].
As to `O=C1NC(NCc2ccccc2C(F)(F)F)=N/C1=C\c1ccc2ncsc2c1`, the IC50 was 434 nM in assay [1]; 135 nM in assay [2]; 15 nM in assay [3]; 6920 nM in assay [4]; above 10000 nM in assay [5]; 2550 nM in assay [6]. In assay [7], this molecule gave an IC50 above 10000 nM.
For `O=C1NC(N[C@@H]2CCCC[C@H](O)C2)=N/C1=C\c1ccc2ncsc2c1` (racemic), the IC50 in assay [1] was 753 nM; in assay [2], 646 nM; in assay [4], 6040 nM; in assay [5], above 10000 nM; in assay [6], 698 nM; in assay [8], 174 nM.
With `Cc1csc(CNC2=N/C(=C\c3ccc4ncsc4c3)C(=O)N2)n1`, the IC50 was 1800 nM in assay [1]; 376 nM in assay [2]; 33 nM in assay [3]; 2150 nM in assay [4]; above 10000 nM in assay [5]; 954 nM in assay [6]. This molecule gave an IC50 in assay [7] above 10000 nM.
Turning to `C[C@@H]1[C@H]2C[C@@H](C[C@H]1NC1=N/C(=C\c3ccc4ncsc4c3)C(=O)N1)C2(C)C`, the IC50 in assay [1] was 1010 nM; in assay [2], 795 nM; in assay [4] it was above 10000 nM; in assay [5], above 10000 nM; in assay [6], 719 nM; in assay [7], above 10000 nM.
Regarding `O=C1NC(N[C@@H](CO)CC2CCCC2)=N/C1=C\c1ccc2ncsc2c1`, the IC50 is 1460 nM in assay [2]; 40 nM in assay [3]; 2870 nM in assay [4]; above 10000 nM in assay [5]; 1720 nM in assay [6]; above 10000 nM in assay [7]. For the same molecule, the IC50 in assay [8] worked out at 4010 nM.
Regarding `O=C1NC(Nc2cccc(OC(F)F)c2)=N/C1=C\c1ccc2ncsc2c1`, the IC50 in assay [1] is 706 nM; in assay [2], 710 nM; in assay [3], 134 nM; in assay [4], 3680 nM; in assay [5] it was above 10000 nM; in assay [6], 2730 nM. In assay [8], this molecule showed an IC50 of 760 nM.
As to `CC[C@H](CO)NC1=N/C(=C\c2ccc3ncsc3c2)C(=O)N1`, the IC50 in assay [2] was 1150 nM; in assay [3], 216 nM; in assay [4], above 10000 nM; in assay [5], above 10000 nM; in assay [6], 1600 nM; in assay [7] it was above 10000 nM. For the same molecule, in assay [8], the IC50 came out at 1550 nM.
In the case of `O=C1NC(NCc2cccnc2)=N/C1=C\c1ccc2ncsc2c1`, the IC50 was 716 nM in assay [2]; 53 nM in assay [3]; 2840 nM in assay [4]; above 10000 nM in assay [5]; 1380 nM in assay [6]; above 10000 nM in assay [7]. This molecule also gave an IC50 in assay [8] of 2010 nM.
Consider `O=C1NC(N[C@@H](CO)CC2CCC2)=N/C1=C\c1ccc2ncsc2c1`, for which the IC50 was 1250 nM in assay [1]; 720 nM in assay [2]; 2410 nM in assay [4]; above 10000 nM in assay [5]; 1670 nM in assay [6]; above 10000 nM in assay [7]. For the same molecule, inhibition in assay [8] was half-maximal at 1910 nM (IC50).
Take `O=C1NC(NC2CCCCC2(F)F)=N/C1=C\c1ccc2ncsc2c1` (racemic): the IC50 in assay [1] was 119 nM; in assay [2] it was 127 nM; in assay [3], 28 nM; in assay [4], 5560 nM; in assay [5], above 10000 nM; in assay [6], 143 nM. Also, the IC50 in assay [7] was above 10000 nM.
In the case of `O=C1NC(N[C@H]2CC[C@H](O)CC2)=N/C1=C\c1ccc2ncsc2c1`, the IC50 in assay [2] is 392 nM; in assay [3] it was 98 nM; in assay [4], 9620 nM; in assay [5], 4950 nM; in assay [6], 1770 nM; in assay [7] it was above 10000 nM. The IC50 in assay [8] was 625 nM.
Turning to `O=C1NC(Nc2ccccn2)=N/C1=C\c1ccc2ncsc2c1`, the IC50 was 350 nM in assay [1]; 211 nM in assay [2]; 117 nM in assay [3]; 1660 nM in assay [4]; above 10000 nM in assay [5]; above 10000 nM in assay [7]. In assay [8], this molecule showed an IC50 of 256 nM.
As to `CO[C@H]1CCCC[C@H]1NC1=N/C(=C\c2ccc3ncsc3c2)C(=O)N1` (racemic), the IC50 in assay [1] was 1060 nM; in assay [2], 1130 nM; in assay [3], 648 nM; in assay [4], 9540 nM; in assay [5], above 10000 nM; in assay [6] it was 731 nM. This molecule returned an IC50 in assay [8] of 1570 nM.
Turning to `CN1CCN(c2ncc(NC3=N/C(=C\c4ccc5ncsc5c4)C(=O)N3)cn2)CC1`, the IC50 in assay [2] was 1920 nM; in assay [3], 143 nM; in assay [4], 1190 nM; in assay [5], above 10000 nM; in assay [6] it was 294 nM; in assay [7], above 10000 nM. The same molecule displayed an IC50 in assay [8] of 175 nM.
